Results from publication PMC12491715 (Acta Pharmaceutica Sinica. B, 2025).

Legend:
hAChE = hAChE (Homo sapiens, UniProt P22303); experiment: ChE IC50 determination, method of Ellman, hAChE; assay type: biochemical; settings: for remaining activity at 100 µM: residual activity at 100 μmol/L, after 5 min preincubation, read-out: hAChE RA±SD (residual activity)
Description: (§1) The inhibitory potencies of the compounds against the ChEs were determined using the method of Ellman following the procedure described previously. Briefly, compound stock solutions in DMSO were incubated with Ellman’s reagent and ChEs (final concentrations: 370 μmol/L Ellman’s reagent, approximately 1 nmol/L or 50 pmol/L hBChE or hAChE, respectively) in 0.1 mol/L sodium phosphate pH 8.0 for 5 min at 20 °C. For time-dependency measurements, the pre-incubation time was varied (1, 5, 15, 30 or 60 min). The reactions were started by the addition of the substrate (final concentration, 500 μmol/L butyrylthiocholine iodide or acetylthiocholine iodide for hBChE and hAChE, respectively). The final content of DMSO was always 1%. The increase in absorbance at 412 nm was monitored for 2 min using a 96-well microplate reader (Synergy HT, BioTek Instruments, VT, USA). The initial velocities in the presence (vi) and absence (v0) of the test compounds were calculated. The inhibitory potencies were expressed as the residual activities, according to Eq. (1):(1) RA = vi / v0
(§2) For IC50 determinations, at least seven different concentrations for each compound were used. The IC50 values were obtained by plotting the residual ChE activities against the applied inhibitor concentrations, with the experimental data fitted to a four-parameter logistic function (GraphPad Prism 9.4). Tacrine and donepezil were used as positive controls.

[1] = parameters: method as in PMID 1975199, PMID 16389294; settings: in humans; cited from earlier work
α2 adrenoreceptors = tested on: α2 adrenoreceptors; parameters: method as in PMID 1975199, PMID 16389294; settings: α2 adrenergic antagonist; cited from earlier work
hBChE [2] = biological target: T1, hBChE (Homo sapiens, UniProt P06276); experiment: ChE IC50 determination, method of Ellman, hBChE; assay type: biochemical
Description: as §1, §2

hBChE [3] = biological target: T1, hBChE; experiment: hBChE binding kinetics: carbamoylation and decarbamoylation, initial velocity measurements; assay type: biochemical
Description: The progress curves for the time courses of product formation for the hydrolysis of butyrylthiocholine iodide were measured on an Agilent Cary 3500 UV–VIS spectrophotometer with Compact Peltier (thermostated at 25 °C) at 412 nm using a 0.6 mL cuvette (optical path–0.5 cm). 30 mmol/L Tris buffer pH 7.0 with 1 mg/mL BSA and 0.02% NaN3 was used and all dilutions were done in glass vessels (note: dilute hBChE solutions rapidly lose activity, presumably due to adsorption to plastic, preventing meaningful decarbamoylation assays. In our hands, under the above conditions only, the diluted and stock solutions of hBChE were stable for at least a month at room temperature.). Total volume in the cuvette was always 500 μL, and enzyme solutions that gave upon dilution v0 = (dA/dt) ≈ 0.5 (for carbamoylation) and ≈ 1 for (for decarbamoylation) were used. For carbamoylation experiments, 0.5–1 μL of enzyme stock, 5 μL of compound solution, and 484 μL of buffer were preincubated for the specified time, then 10 μL of the mixture of 25 mmol/L Ellman’s reagent (DTNB) and 20 mmol/L butyrylthiocholine (large excess to prevent substrate depletion) were added, quickly mixed, and measurement started. […] The data analysis followed the literature[63]^,[98].

[4] = tested on: ICR mice icv-injected with Aβ1–42; experiment: Morris water maze, mice model with icv-injection of Aβ1–42; assay type: in vivo; settings: 10 mg/kg, ip; compared with compound 8
Description: Mice model with icv-injection of Aβ1–42 The experiments were performed using ICR male mice (8–10 weeks old, weight 18–20 g), which were purchased from Shanghai Bikai Animal Breeding Factory (Shanghai, China). Animals were housed in cages (6 mice per cage) at a constant temperature of 25±2 °C, humidity of 55%±10% and a light/dark (12:12) cycle. The mice had unlimited access to food and water prior to the experiment. Specified conditions for the maintenance of mice were ensured throughout the experiments, including tree bedding (Yizheng Anlimao Biotechnology Co., Ltd., China) and lab feed (Zimao, China). For behavioural tests, mice were selected randomly, each group consisted of 6 mice. The experiments were performed between 9 am and 3 pm.
According to the literature procedure, recombinant human hexafluoroisopropanol-pretreated Aβ1–42 from Merck Millipore (Darmstadt, Germany) was dissolved in 1% DMSO, diluted with saline to the final concentration of 2 mg/mL, and incubated for 72 h to form oligomers. […]
Behavioural assays The Morris water maze was placed in a lighted room at 25 °C, and it was divided into four equal quadrants. […] The time spent searching for the missing platform was recorded by Xeye Aba image processing system (Beijing Zhongshi Dichuang Technology Development Co., Ltd.) and analysed by GraphPad Prism 5.

Chain of hAChE (P22303 32-614): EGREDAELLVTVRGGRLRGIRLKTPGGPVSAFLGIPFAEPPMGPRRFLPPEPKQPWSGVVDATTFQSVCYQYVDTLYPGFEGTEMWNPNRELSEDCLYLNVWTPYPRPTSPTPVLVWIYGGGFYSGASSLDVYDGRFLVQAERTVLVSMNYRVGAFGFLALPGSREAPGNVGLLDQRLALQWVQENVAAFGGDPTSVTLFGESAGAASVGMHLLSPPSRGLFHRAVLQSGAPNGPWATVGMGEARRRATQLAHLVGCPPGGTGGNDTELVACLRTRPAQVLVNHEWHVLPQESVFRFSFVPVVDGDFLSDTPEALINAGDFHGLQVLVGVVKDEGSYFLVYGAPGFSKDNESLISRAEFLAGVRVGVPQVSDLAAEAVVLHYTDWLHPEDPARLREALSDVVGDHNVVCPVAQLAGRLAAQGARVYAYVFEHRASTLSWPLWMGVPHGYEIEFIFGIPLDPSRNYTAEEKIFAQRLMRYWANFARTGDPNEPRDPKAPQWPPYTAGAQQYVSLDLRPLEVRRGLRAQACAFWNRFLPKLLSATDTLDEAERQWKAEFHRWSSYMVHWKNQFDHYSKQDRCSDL
T1 sequence (P06276 29-602): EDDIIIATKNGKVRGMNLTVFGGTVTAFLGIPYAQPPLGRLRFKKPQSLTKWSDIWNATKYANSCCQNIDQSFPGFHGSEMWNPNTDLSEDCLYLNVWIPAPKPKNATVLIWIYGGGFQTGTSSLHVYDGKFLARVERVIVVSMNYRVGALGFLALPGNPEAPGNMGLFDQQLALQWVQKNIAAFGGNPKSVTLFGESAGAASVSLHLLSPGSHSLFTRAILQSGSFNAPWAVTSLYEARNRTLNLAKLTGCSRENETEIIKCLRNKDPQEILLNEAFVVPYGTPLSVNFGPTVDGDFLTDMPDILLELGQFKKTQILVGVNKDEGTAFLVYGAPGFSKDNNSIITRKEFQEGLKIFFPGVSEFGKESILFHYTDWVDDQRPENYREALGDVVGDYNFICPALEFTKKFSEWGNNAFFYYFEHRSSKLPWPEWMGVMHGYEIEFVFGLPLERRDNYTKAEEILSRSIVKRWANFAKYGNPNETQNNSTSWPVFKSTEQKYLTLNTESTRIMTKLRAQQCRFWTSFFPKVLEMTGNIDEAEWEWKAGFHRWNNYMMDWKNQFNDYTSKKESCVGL

| SMILES | remaining activity at 100 µM (hAChE) | half-life [1] | potency compared to idazoxan 2 (α2 adrenoreceptors) | ChE inhibition of the leaving groups (hBChE [2]; ChEs (hBChE and hAChE)) | remaining activity at 100 µM (hBChE [2]; residual activity at 100 μmol/L, after 5 min preincubation, read-out: hBChE RA±SD (residual activity)) | hAChE time-dependency observed: Yes/No (hAChE; pre-incubation time varied) | Ki (hBChE [3]) | kcarb, carbamoylation (hBChE [3]; 25 °C) | kdecarb, decarbamoylation (hBChE [3]; 25 °C) | t1/2, decarbamoylation (hBChE [3]; 25 °C) | ΔG25°C‡, carbamoylation (hBChE [3]; 25 °C) | effectiveness in MWM test [4] | IC50 (hBChE [2]; after 5 min preincubation, read-out: hBChE IC50±SD) | hBChE time-dependency observed: Yes/No (hBChE [2]; pre-incubation time varied) |
| --- | --- | --- | --- | --- | --- | --- | --- | --- | --- | --- | --- | --- | --- | --- |
| CCC1(c2cnc[nH]2)Cc2ccccc2C1 [Compound 5, 4-(2-ethylindan-2-yl)-1H-imidazole, reference compound] | 82% | 1.7 to 2 h | approx. 100 fold | ineffective | 82% |  |  |  |  |  |  |  |  |  |
| CCN(C)C(=O)n1cnc(C2(CC)Cc3ccccc3C2)c1 [Compound 7, N-Ethyl-4-(2-ethylindan-2-yl)-N-methyl-1H-imidazole-1-carboxamide] | 52 ± 3% |  |  |  |  | Yes | 73 ± 6 nM | 7.2±4.5 min^–1 | 0.92±0.14 ×10^–2 h^–1 | 75 ± 11 h | 18.7 ± 0.4 kcal/mol | less effective | 9.9 ± 0.9 nM | Yes |
